From BindingDB's records for doi:10.1021/jm00039a013 (Pfizer, 1994)

Assay: Inhibitory activity against acetylcholinesterase in mice at the dose of 4.8 mg/kg via intraperitoneal administration

Structure (SMILES): CCCCCCCNC(=O)Oc1ccc2c(c1)[C@]1(C)CCN(C)[C@@H]1N2C [(3aS,8aR)-1,3a,8-trimethyl-1H,2H,3H,3aH,8H,8aH-pyrrolo[2,3-b]indol-5-yl N-heptylcarbamate]
- IC50: 148 nM
